Key:
[1] = test system: normal lung fibroblasts (NLF); experiment: Collagen and ASMA expression in NLF treated with CSD and its subdomains; type: cell-based, human; conditions: 3 μM peptide
Experimental: The indicated cell types (NLF and SLF) were cultured as described with 0, 1, 3, or 5 μM of the indicated peptides. Collagen in the medium and ASMA and actin (loading control) in the cell layer were detected by Western blotting. Blots were quantified densitometrically. The level of collagen and ASMA in cells treated with no peptide (divided by the level of actin) was set to 100 arbitrary units. Because SLF express higher levels of collagen and ASMA than do NLF, 100 arbitrary of collagen in SLF is equivalent to 195 arbitrary units of collagen in NLF and 100 arbitrary units of ASMA in SLF is equivalent to 255 arbitrary units of ASMA in NLF. The data presented are the average of the densitometric quantification of three independent experiments.
To compare the activity of CSD to its subdomains, five subdomains [A (82-88 amino acids), B (89-95), C (96-101), AB (82-95) and BC (89-101)] were synthesized in fusion with the Antennapedia internalization sequence and added to culture medium at 1, 3, and 5 μM. […] Very different results were obtained when examining ASMA expression.

[2] = test system: bleomycin-induced lung fibrosis; experiment: Bleomycin-induced lung fibrosis and CSD treatment in mice; type: in vivo, mouse
Experimental: Extract from each mouse was analyzed by Western blotting (25 μg total protein per lane) using antibodies against ph-ERK, caveolin-1, PKCε, ASMA, PKCα, tenascin-C, ph-Akt, ph-JNK, and actin (loading control); and the results quantified densitometrically (averages±s.e.m. are shown). The level of each protein in “Saline” was set to 100 arbitrary units. Actin levels (loading control) were similar in all four samples (not shown). Statistical significance: ns, not significant; **p<0.01; ***p<0.001.
Masson's Trichrome-stained sections from the experiments described in FIG. 11 were used to evaluate the effects of bleomycin and the CSD peptide on collagen expression (blue product) and lung tissue morphology. […] To generate the table, Masson's Trichrome-stained slides of lung tissue from all 41 mice sacrificed 14 days after saline or bleomycin treatment were scored blind in terms of the portion of the lung with abnormal morphology using an arbitrary scale: Normal morphology as in A=0, slightly altered morphology as in B=1, moderately altered morphology as in C=2, and severely altered morphology as in D 3. Bar in C=0.1 mm.
This procedure was approved by the MUSC Institutional Animal Care & Use Committee. Ten-week old, male CD 1 mice (Charles River, Boston, Mass.) were anesthetized and received bleomycin (Calbiochem, La Jolla, Calif.) or saline solution by intratracheal instillation as previously described (44). Two approaches were used for CSD peptide treatment. In both approaches the peptide treatment was initiated one day prior to bleomycin. In the first approach, Alzet pumps delivering 0.5 μl/h for 14 days of a 1 mM solution of CSD peptide were implanted into twelve mice; twelve additional mice received no pump. In the second approach twelve mice received daily intraperitoneal injections of 100 μl of a 0.15 mM solution of the CSD peptide for 14 days; twelve additional mice received the scrambled peptide. One day later, six mice from each group of twelve received intratracheal bleomycin, six received saline. After 14 days, lungs were harvested. Half of each set of lungs was fixed, sectioned, and stained with Masson's Trichrome Stain. The other half of each set of lungs was dissolved in SDS-PAGE sample buffer for Western blotting experiments. Because very similar results were obtained using the two approaches to CSD peptide treatment, results were pooled.
Student's t test was used to analyze protein expression levels in lung tissue samples obtained from normal individuals and from scleroderma patients. Protein expression levels for samples obtained from in vitro experiments and from mice were analyzed by two-way analysis of variance (ANOVA) followed by the Bonferroni post-test. For experiments in which the degree of tissue damage in mice treated with bleomycin was scored on an arbitrary scale, data was analyzed using the Mann-Whitney rank sum test. In all tests, results were regarded as statistically significant if p<0.05.

[3] = mouse lung tissue, Western blotting, 14 days

With DGIWKASFTTFTVTKYWFYR [CSD peptide] the collagen expression [1] was “completely inhibited”, the median weight loss ([2]; bleomycin-treated mice receiving peptide (30% in untreated mice)) was 14 % of original weight and the “tissue damage and collagen deposition” value ([2]; bleomycin-treated mice, CSD peptide via Alzet pumps or intraperitoneal injection, 14 days, Masson's Trichrome) was “slight to moderate”. The “survival and lung tissue morphology” value ([2]; bleomycin-treated mice, systemic treatment with the peptide) was “striking positive effect”, the “expression of caveolin-1 itself” value ([2]; lung tissue of bleomycin-treated mice, Western blotting) was “did not affect” and the “inhibition of bleomycin-induced decrease in PKCα” value [2, 3] was “about 50%”. The “inhibition of bleomycin-induced decrease in PKCε” value [2, 3] was “at least 75%”, the “inhibition of bleomycin-induced increase in ASMA” value [2, 3] was “at least 75%” and the “inhibition of bleomycin-induced increase in ph-Akt” value [2, 3] was “at least 75%”. The “inhibition of bleomycin-induced increase in ph-ERK” value [2, 3] was “at least 75%”, the “inhibition of bleomycin-induced increase in ph-JNK” value [2, 3] was “at least 75%” and the “inhibition of bleomycin-induced increase in tenascin-C” value [2, 3] was “at least 75%”.
